From publication PMC8632988, “Inhibition of SYK and cSrc kinases can protect bone and cartilage in preclinical models of osteoarthritis and rheumatoid arthritis” (Scientific Reports, 2021)
Several values for one entry are separate records, joined by “and”; a condition that tells them apart may be missing. Identical values can stand only once.

Tested on: DBA/1 mice, CIA model
Experiment: Collagen-induced arthritis model in mice
Format: in vivo, mouse
Parameters: Total AUC Sum (d1-11) / Total AUC Sum (d1-11), Mean: scale not given here
Description: Collagen-induced arthritis (CIA) model was performed at Bolder BioPATH, USA. Study design and animal usage was approved by Bolder BioPATH’s Institutional Animal Care and Use Committee. CIA was induced in 6–7 week old male DBA/1 mice with body weight of 15–26 g (Harlan, Inc) by intradermal injection of Freund’s Complete Adjuvant (Difco) containing bovine type II collagen (Bolder BioPATH) on day 0 and again on day 21 according to the standard protocol. […] After that mice were randomized into six groups: a control group of four, vehicle group and four treatment groups of ten mice each. […] Each paw was scored daily for inflammation. Therapeutic and prophylactic paws were considered. At study termination mice were euthanized by CO2 inhalation followed by cervical dislocation. Fore paws, hind paws, and knees were removed for microscopy.
Mice were weighed on arthritis days 1, 3, 5, 7, 9, and 11 (prior to necropsy). Daily clinical scores were given for each of the paws (right front, left front, right rear, left rear) on days 1–11 using the following criteria:
After 1–2 days in fixative and 4–5 days in 5% formic acid for decalcification, tissues were trimmed, processed for paraffin embedding, sectioned at 8 µm and stained with toluidine blue. Hind paws and knees were embedded and sectioned in the frontal plane. Two joints from each animal were processed for histopathology evaluation. The joints were then scored by two independent readers as indicated below. When scoring, severity of changes as well as number of individual joints affected were considered. When only 1–3 joints of the paws or ankles out of a possibility of numerous metacarpal/metatarsal/digit or tarsal/tibiotarsal joints were affected, an arbitrary assignment of a maximum score of 1, 2 or 3 for parameters below was given depending on severity of changes. If more than 3 joints were involved, the criteria below were applied to the most severely affected/majority of joints.

[1] = all joints, MT-SYK-03 103 mg/kg PO, BID (Group 4)
[2] = all joints, MT-SYK-03 103 mg/kg PO, BID (Group 4), group mean
[3] = all joints, MT-SYK-03 103 mg/kg PO, BID (Group 4), individual animals, 103 mg/kg

COc1cc(Nc2ncnc(Nc3cc4c(cn3)NC(=O)C(C)(C)O4)n2)cc(OC)c1OC [MT-SYK-03]
Summed Prophylactic (Non-Enrollment) Paw Score (MT-SYK-03 103 mg/kg PO, BID, Day 10, individual animals, 103 mg/kg): 9 and 3 and 11 and 8 and 2 and 10 and 7 and 5
% inhibition to Vehicle, Summed Prophylactic (Non-Enrollment) Paw Score (MT-SYK-03 103 mg/kg PO, BID, Day 11): 17%
Summed Prophylactic (Non-Enrollment) Paw Score (MT-SYK-03 103 mg/kg PO, BID, Day 11, group mean): 7.30
Summed Prophylactic (Non-Enrollment) Paw Score (MT-SYK-03 103 mg/kg PO, BID, Day 11, individual animals, 103 mg/kg): 9 and 3 and 12 and 8 and 2 and 10 and 7 and 5
Total AUC Sum (d1-11), Prophylactic (Non-Enrollment) Paw Score (MT-SYK-03 103 mg/kg PO, BID, group mean): 54.15
Total AUC Sum (d1-11), Prophylactic (Non-Enrollment) Paw Score (MT-SYK-03 103 mg/kg PO, BID, individual animals, 103 mg/kg): 67.5 and 27.5 and 71.0 and 61.0 and 12.0 and 80.0 and 70.5 and 51.5 and 63.0 and 37.5
% inhibition, Bone Resorption score [1]: 29%
% inhibition, Cartilage Damage score [1]: 17%
% inhibition, Inflammation score [1]: 7%
% inhibition, Pannus score [1]: 29%
% inhibition, Periosteal Bone Formation score [1]: 18%
% inhibition, Periosteal Bone Width [1]: 20%
% inhibition, Summed Scores [1]: 18%
Histopathology Scores Bone Resorption, Mean [2]: 1.23
Histopathology Scores Cartilage Damage, Mean [2]: 2.74
Histopathology Scores Inflammation, Mean [2]: 3.44
Histopathology Scores Pannus, Mean [2]: 1.23
Histopathology Scores Periosteal Bone Formation, Mean [2]: 0.93
Histopathology Scores Summed Scores, Mean [2]: 9.58
Periosteal Bone Width (40*25x measure), Mean [2]: 79.33 μm
Histopathology Scores Bone Resorption [3]: 0.83 and 0.75 and 1.17 and 1.92 and 1.42 and 2.00 and 1.75 and 0.33
Histopathology Scores Cartilage Damage [3]: 2.33 and 2.00 and 2.58 and 4.00 and 1.67 and 2.75 and 4.17 and 3.25 and 0.67
Histopathology Scores Inflammation [3]: 2.83 and 3.17 and 3.83 and 4.67 and 1.92 and 3.42 and 4.50 and 4.33
Histopathology Scores Pannus [3]: 0.83 and 0.75 and 1.17 and 1.92 and 1.42 and 2.00 and 1.75 and 0.33
Histopathology Scores Periosteal Bone Formation [3]: 0.67 and 1.17 and 1.33 and 0.33 and 1.67 and 0.83
Histopathology Scores Summed Scores [3]: 7.50 and 7.33 and 9.92 and 13.83 and 5.42 and 10.17 and 11.58 and 12.67 and 3.58
Periosteal Bone Width (40*25x measure) [3]: 40.00 μm and 53.33 μm and 106.67 μm and 120.00 μm and 33.33 μm and 86.67 μm and 140.00 μm and 80.00 μm and 26.67 μm
Histopathology scores for knee and ankle joints (murine CIA): decreased histopathology scores
Periosteal bone width of paw and knee joints (murine CIA): slightly decreased
Cartilage damage, bone resorption and inflammation in knees (microphotographs) (murine CIA, 103 mg/kg oral): decreasing of cartilage damage, bone resorption and inflammation in knees
Clinical arthritis score (severity of inflammation) (murine CIA, MT-SYK-03 103 mg/kg oral): reduced the severity of inflammation
% inhibition to Vehicle, Total AUC Sum (d1-11) (therapeutic/enrollment paw score, MT-SYK-03 103 mg/kg PO, BID (Group 4)): 6%
Total AUC Sum (d1-11), Mean (therapeutic/enrollment paw score, MT-SYK-03 103 mg/kg PO, BID (Group 4), group mean): 59.75
Total AUC Sum (d1-11) (therapeutic/enrollment paw score, MT-SYK-03 103 mg/kg PO, BID (Group 4), individual animals, 103 mg/kg): 79 and 81 and 73 and 33 and 42 and 102 and 83 and 38 and 36
% inhibition to Vehicle, paw score Day 1 (therapeutic/enrollment paws, Day 1, MT-SYK-03 103 mg/kg PO, BID (Group 4)): 0%
Average Paw Score Per Arthritis Day, Day 1, Mean (therapeutic/enrollment paws, Day 1, MT-SYK-03 103 mg/kg PO, BID (Group 4), group mean): 3.20
Average Paw Score Per Arthritis Day, Day 1 (therapeutic/enrollment paws, Day 1, MT-SYK-03 103 mg/kg PO, BID (Group 4), individual animals, 103 mg/kg): 4 and 2 and 6
% inhibition to Vehicle, paw score Day 2 (therapeutic/enrollment paws, Day 2, MT-SYK-03 103 mg/kg PO, BID (Group 4)): 19%
Average Paw Score Per Arthritis Day, Day 2, Mean (therapeutic/enrollment paws, Day 2, MT-SYK-03 103 mg/kg PO, BID (Group 4), group mean): 3.80
Average Paw Score Per Arthritis Day, Day 2 (therapeutic/enrollment paws, Day 2, MT-SYK-03 103 mg/kg PO, BID (Group 4), individual animals, 103 mg/kg): 4 and 6 and 2 and 3
% inhibition to Vehicle, paw score Day 3 (therapeutic/enrollment paws, Day 3, MT-SYK-03 103 mg/kg PO, BID (Group 4)): 8%
Average Paw Score Per Arthritis Day, Day 3, Mean (therapeutic/enrollment paws, Day 3, MT-SYK-03 103 mg/kg PO, BID (Group 4), group mean): 5.40
Average Paw Score Per Arthritis Day, Day 3 (therapeutic/enrollment paws, Day 3, MT-SYK-03 103 mg/kg PO, BID (Group 4), individual animals, 103 mg/kg): 6 and 8 and 3 and 4 and 9
% inhibition to Vehicle, paw score Day 4 (therapeutic/enrollment paws, Day 4, MT-SYK-03 103 mg/kg PO, BID (Group 4)): 6%
Average Paw Score Per Arthritis Day, Day 4, Mean (therapeutic/enrollment paws, Day 4, MT-SYK-03 103 mg/kg PO, BID (Group 4), group mean): 5.80
Average Paw Score Per Arthritis Day, Day 4 (therapeutic/enrollment paws, Day 4, MT-SYK-03 103 mg/kg PO, BID (Group 4), individual animals, 103 mg/kg): 7 and 8 and 6 and 4 and 10 and 3
% inhibition to Vehicle, paw score Day 5 (therapeutic/enrollment paws, Day 5, MT-SYK-03 103 mg/kg PO, BID (Group 4)): 6%
Average Paw Score Per Arthritis Day, Day 5, Mean (therapeutic/enrollment paws, Day 5, MT-SYK-03 103 mg/kg PO, BID (Group 4), group mean): 6.20
Average Paw Score Per Arthritis Day, Day 5 (therapeutic/enrollment paws, Day 5, MT-SYK-03 103 mg/kg PO, BID (Group 4), individual animals, 103 mg/kg): 8 and 7 and 4 and 11 and 3 and 9
% inhibition to Vehicle, paw score Day 6 (therapeutic/enrollment paws, Day 6, MT-SYK-03 103 mg/kg PO, BID (Group 4)): 5%
Average Paw Score Per Arthritis Day, Day 6, Mean (therapeutic/enrollment paws, Day 6, MT-SYK-03 103 mg/kg PO, BID (Group 4), group mean): 6.30
Average Paw Score Per Arthritis Day, Day 6 (therapeutic/enrollment paws, Day 6, MT-SYK-03 103 mg/kg PO, BID (Group 4), individual animals, 103 mg/kg): 8 and 4 and 11 and 3 and 9
% inhibition to Vehicle, paw score Day 7 (therapeutic/enrollment paws, Day 7, MT-SYK-03 103 mg/kg PO, BID (Group 4)): 3%
Average Paw Score Per Arthritis Day, Day 7, Mean (therapeutic/enrollment paws, Day 7, MT-SYK-03 103 mg/kg PO, BID (Group 4), group mean): 6.60
Average Paw Score Per Arthritis Day, Day 7 (therapeutic/enrollment paws, Day 7, MT-SYK-03 103 mg/kg PO, BID (Group 4), individual animals, 103 mg/kg): 9 and 8 and 4 and 11
% inhibition to Vehicle, paw score Day 8 (therapeutic/enrollment paws, Day 8, MT-SYK-03 103 mg/kg PO, BID (Group 4)): 3%
Average Paw Score Per Arthritis Day, Day 8, Mean (therapeutic/enrollment paws, Day 8, MT-SYK-03 103 mg/kg PO, BID (Group 4), group mean): 6.80
Average Paw Score Per Arthritis Day, Day 8 (therapeutic/enrollment paws, Day 8, MT-SYK-03 103 mg/kg PO, BID (Group 4), individual animals, 103 mg/kg): 10 and 9 and 3 and 5 and 11 and 4
% inhibition to Vehicle, paw score Day 9 (therapeutic/enrollment paws, Day 9, MT-SYK-03 103 mg/kg PO, BID (Group 4)): 5%
Average Paw Score Per Arthritis Day, Day 9, Mean (therapeutic/enrollment paws, Day 9, MT-SYK-03 103 mg/kg PO, BID (Group 4), group mean): 6.90
Average Paw Score Per Arthritis Day, Day 9 (therapeutic/enrollment paws, Day 9, MT-SYK-03 103 mg/kg PO, BID (Group 4), individual animals, 103 mg/kg): 10 and 9 and 3 and 5 and 12 and 4
% inhibition to Vehicle, paw score Day 10 (therapeutic/enrollment paws, Day 10, MT-SYK-03 103 mg/kg PO, BID (Group 4)): 7%
Average Paw Score Per Arthritis Day, Day 10, Mean (therapeutic/enrollment paws, Day 10, MT-SYK-03 103 mg/kg PO, BID (Group 4), group mean): 6.90
Average Paw Score Per Arthritis Day, Day 10 (therapeutic/enrollment paws, Day 10, MT-SYK-03 103 mg/kg PO, BID (Group 4), individual animals, 103 mg/kg): 10 and 9 and 3 and 5 and 12 and 4
% inhibition to Vehicle, paw score Day 11 (therapeutic/enrollment paws, Day 11, MT-SYK-03 103 mg/kg PO, BID (Group 4)): 7%
Average Paw Score Per Arthritis Day, Day 11, Mean (therapeutic/enrollment paws, Day 11, MT-SYK-03 103 mg/kg PO, BID (Group 4), group mean): 6.90
Average Paw Score Per Arthritis Day, Day 11 (therapeutic/enrollment paws, Day 11, MT-SYK-03 103 mg/kg PO, BID (Group 4), individual animals, 103 mg/kg): 10 and 9 and 3 and 5 and 12 and 4
